Data published in patent US9247750B2, “Polyenylcyclopropanecarboxylic esters with high insecticidal activity” (Endura S.P.A., priority 2007, dated 2016).

How the values were obtained:
Format in all cases: in vivo
Culex quinquefasciatus [1] = test: Insecticide effectiveness in the vapour phase against mosquitoes, impregnated paper unit in 20 m^3 room (Example 9); conditions: 5 mg/unit; for % mortality 24 h: 24th hour from start of test; for % Knock-down 8 h: at end of 8th hour; for Knock-down time KT10 / Knock-down time KT50 / Knock-down time KT90: average of 3 cages
Experimental: (§1) Test units consisting of a paper support 20 cm×10 cm in size were impregnated with the compound of examples 3, 7 and 8 and, for comparative purposes, with the reference compounds transfluthrin and metofluthrin, at an amount of 5.00 mg/unit for each compound (pure). Using a common laboratory stand, the test unit was placed at a height of about 30 cm from the ground along one side of a 20 m^3 room (L 3.00 m×D 2.49 m×H 2.69 m). In order to homogenize the insecticidal air within the room, a small electric fan was placed on the floor diagonal to the surface of the unit, in the nearest corner at a distance of about 50 cm from the unit. Three metal cages (L 8.4 cm×Ø 8.0 cm×mesh 1.0 mm) for every mosquito species, each containing 20 3-4 day old individuals of mixed sex, were placed along the other three sides of the room, at a height of 1.80 m from the ground and at a distance of 0.45 m from the respective walls. During the test the room was kept closed and temperature and humidity were controlled (T 23-26° C., RH 49-61%). The fan was switched on and left on for 8 continuous hours. The times needed to reach 10%, 50% and 90% insect knock-down (KT10, KT50 and KT90, respectively) were recorded.
(§2) Every 2 hours and up to the 6th hour after the fan was switched on, new cages were introduced containing insects (set of 3 cages for each species).
(§3) At the end of the 8th hour, the percentage of insects knocked down in all the cages was determined, then the insects were removed from the room and transferred into an uncontaminated atmosphere within closed containers containing a sugary solution. The percentage mortality was recorded at the 24th hour from the start of the test.
(§4) The results obtained are summarized in tables 1 and 2 and the data are averages for the 3 cages.

Aedes aegypti [2] = test: as above; conditions: 5 mg/unit; for % mortality 24 h: 24th hour from start of test; for % Knock-down 8 h: at end of 8th hour; for Knock-down time KT10 / Knock-down time KT50 / Knock-down time KT90: average of 3 cages
Experimental: as §1, §2, §3, §4

Blattella germanica = test: Effectiveness of residual insecticide on surfaces (glazed tiles) against cockroaches (Example 6); conditions: 50 mg/m^2 on glazed tiles, 24 h exposure
Experimental: Solutions of the compound of example 3 in acetone and, for comparison, of the reference compounds Transfluthrin and Metofluthrin were applied from a distance of 12 cm onto glazed tiles (Ostara model, 15×15 cm=225 cm^2) by means of a suitable glass sprayer, so as to obtain an applied amount of pure compound equal to 50 mg/m^2. After treatment the tiles were transferred to and maintained in a closed test room at controlled temperature and humidity (24-25° C., RH 50-60%). Glass rings (H 5.5 cm×Ø 9.5 cm), with their internal surface treated with talc, and each containing 5 cockroaches, were positioned at the centre of the tiles for each of the assessment times of 24 hours, 3, 7, 10 and 14 days following treatment. For each assessment day, the insects were maintained on the surface for 24 hours and the time (hours, minutes) necessary to attain 100% knock-down followed by death, or percentage knock-down at the end of 24 hours, were recorded.

Culex quinquefasciatus [3] = test: Insecticide effectiveness in the vapour phase against mosquitoes, impregnated paper unit in 20 m^3 room (Example 5); conditions: 5 mg/unit; for % mortality 24 h: 24th hour from start of test; for % Knock-down 8 h: at end of 8th hour; for Knock-down time KT10 / Knock-down time KT50 / Knock-down time KT90: average of 3 cages
Experimental: (§5) Test units consisting of a paper support 20 cm×10 cm in size were impregnated with the compound of example 3 and, for comparative purposes, with the reference compounds transfluthrin and metofluthrin, at an amount of 5.00 mg/unit for each compound (pure).
(§6) Using a common laboratory stand, the test unit was placed at a height of about 30 cm from the ground along one side of a 20 m^3 room (L 3.00 m×D 2.49 m×H 2.69 m). In order to homogenize the insecticidal air within the room, a small electric fan was placed on the floor diagonal to the surface of the unit, in the is nearest corner at a distance of about 50 cm from the unit. Three metal cages (L 8.4 cm×Ø 8.0 cm×mesh 1.0 mm) for every mosquito species, each containing 20 3-4 day old individuals of mixed sex, were placed along the other three sides of the room, at a height of 1.80 m from the ground and at a distance of 0.45 m from the respective walls. During the test the room was kept closed and temperature and humidity were controlled (T 23-26° C., RH 49-61%).
(§7) The fan was switched on and left on for 8 continuous hours. The times needed to reach 10%, 50% and 90% insect knock-down (KT10, KT50 and KT90, respectively) were recorded.
as §2, §3, §4

Aedes aegypti [4] = test: as above; conditions: 5 mg/unit; for % mortality 24 h: 24th hour from start of test; for % Knock-down 8 h: at end of 8th hour; for Knock-down time KT10 / Knock-down time KT50 / Knock-down time KT90: average of 3 cages
Experimental: as §5, §6, §7, §2, §3, §4

CC1(C)[C@H](C=C(Cl)Cl)[C@H]1C(=O)OCc1c(F)c(F)cc(F)c1F [Transfluthrin, transfluthrin]
% mortality 24 h (Culex quinquefasciatus [1]; insect exposure after 0 hours): 100%
% Knock-down 8 h (Culex quinquefasciatus [1]; insect exposure after 0 hours): 100%
Knock-down time KT10 (Culex quinquefasciatus [1]; insect exposure after 0 hours): 31 min
Knock-down time KT50 (Culex quinquefasciatus [1]; insect exposure after 0 hours): 42 min
Knock-down time KT90 (Culex quinquefasciatus [1]; insect exposure after 0 hours): 55 min
% mortality 24 h (Culex quinquefasciatus [1]; insect exposure after 2 hours): 100%
% Knock-down 8 h (Culex quinquefasciatus [1]; insect exposure after 2 hours): 100%
Knock-down time KT10 (Culex quinquefasciatus [1]; insect exposure after 2 hours): 16 min
Knock-down time KT50 (Culex quinquefasciatus [1]; insect exposure after 2 hours): 25 min
Knock-down time KT90 (Culex quinquefasciatus [1]; insect exposure after 2 hours): 34 min
% mortality 24 h (Culex quinquefasciatus [1]; insect exposure after 4 hours): 100%
% Knock-down 8 h (Culex quinquefasciatus [1]; insect exposure after 4 hours): 100%
Knock-down time KT10 (Culex quinquefasciatus [1]; insect exposure after 4 hours): 11 min
Knock-down time KT50 (Culex quinquefasciatus [1]; insect exposure after 4 hours): 16 min
Knock-down time KT90 (Culex quinquefasciatus [1]; insect exposure after 4 hours): 24 min
% mortality 24 h (Aedes aegypti [2]; insect exposure after 0 hours): 100%
% Knock-down 8 h (Aedes aegypti [2]; insect exposure after 0 hours): 100%
Knock-down time KT10 (Aedes aegypti [2]; insect exposure after 0 hours): 21 min
Knock-down time KT50 (Aedes aegypti [2]; insect exposure after 0 hours): 26 min
Knock-down time KT90 (Aedes aegypti [2]; insect exposure after 0 hours): 35 min
% mortality 24 h (Aedes aegypti [2]; insect exposure after 2 hours): 100%
% Knock-down 8 h (Aedes aegypti [2]; insect exposure after 2 hours): 100%
Knock-down time KT10 (Aedes aegypti [2]; insect exposure after 2 hours): 7 min
Knock-down time KT50 (Aedes aegypti [2]; insect exposure after 2 hours): 9 min
Knock-down time KT90 (Aedes aegypti [2]; insect exposure after 2 hours): 12 min
% mortality 24 h (Aedes aegypti [2]; insect exposure after 4 hours): 100%
% Knock-down 8 h (Aedes aegypti [2]; insect exposure after 4 hours): 100%
Knock-down time KT10 (Aedes aegypti [2]; insect exposure after 4 hours): 6 min
Knock-down time KT50 (Aedes aegypti [2]; insect exposure after 4 hours): 9 min
Knock-down time KT90 (Aedes aegypti [2]; insect exposure after 4 hours): 14 min
percentage knock-down after 24 hours (Blattella germanica; 1 day after treatment): 60%
percentage knock-down after 24 hours (Blattella germanica; 3 days after treatment): 24 h 0%
percentage knock-down after 24 hours (Blattella germanica; 7 days after treatment): 24 h 0%
% mortality 24 h (Culex quinquefasciatus [3]; insect exposure after 0 hours): 100%
% Knock-down 8 h (Culex quinquefasciatus [3]; insect exposure after 0 hours): 100%
Knock-down time KT10 (Culex quinquefasciatus [3]; insect exposure after 0 hours): 27 min
Knock-down time KT50 (Culex quinquefasciatus [3]; insect exposure after 0 hours): 37 min
Knock-down time KT90 (Culex quinquefasciatus [3]; insect exposure after 0 hours): 44 min
% mortality 24 h (Culex quinquefasciatus [3]; insect exposure after 2 hours): 100%
% Knock-down 8 h (Culex quinquefasciatus [3]; insect exposure after 2 hours): 100%
Knock-down time KT10 (Culex quinquefasciatus [3]; insect exposure after 2 hours): 7 min
Knock-down time KT50 (Culex quinquefasciatus [3]; insect exposure after 2 hours): 14 min
Knock-down time KT90 (Culex quinquefasciatus [3]; insect exposure after 2 hours): 20 min
% mortality 24 h (Culex quinquefasciatus [3]; insect exposure after 4 hours): 100%
% Knock-down 8 h (Culex quinquefasciatus [3]; insect exposure after 4 hours): 100%
Knock-down time KT10 (Culex quinquefasciatus [3]; insect exposure after 4 hours): 9 min
Knock-down time KT50 (Culex quinquefasciatus [3]; insect exposure after 4 hours): 17 min
Knock-down time KT90 (Culex quinquefasciatus [3]; insect exposure after 4 hours): 22 min
% mortality 24 h (Aedes aegypti [4]; insect exposure after 0 hours): 100%
% Knock-down 8 h (Aedes aegypti [4]; insect exposure after 0 hours): 100%
Knock-down time KT10 (Aedes aegypti [4]; insect exposure after 0 hours): 21 min
Knock-down time KT50 (Aedes aegypti [4]; insect exposure after 0 hours): 26 min
Knock-down time KT90 (Aedes aegypti [4]; insect exposure after 0 hours): 36 min
% mortality 24 h (Aedes aegypti [4]; insect exposure after 2 hours): 100%
% Knock-down 8 h (Aedes aegypti [4]; insect exposure after 2 hours): 100%
Knock-down time KT10 (Aedes aegypti [4]; insect exposure after 2 hours): 5 min
Knock-down time KT50 (Aedes aegypti [4]; insect exposure after 2 hours): 9 min
Knock-down time KT90 (Aedes aegypti [4]; insect exposure after 2 hours): 12 min
% mortality 24 h (Aedes aegypti [4]; insect exposure after 4 hours): 100%
% Knock-down 8 h (Aedes aegypti [4]; insect exposure after 4 hours): 100%
Knock-down time KT10 (Aedes aegypti [4]; insect exposure after 4 hours): 4 min
Knock-down time KT50 (Aedes aegypti [4]; insect exposure after 4 hours): 7 min
Knock-down time KT90 (Aedes aegypti [4]; insect exposure after 4 hours): 10 min
